Experimental data reported in PubChem BioAssay (NCI).
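1) Cells in 96-well plates. 2) Compound, 48 h, 5 concentrations. 3) Linear interpolation between surrounding doses. 4) Unreached endpoint = highest concentration. TGI denotes the concentration required for complete inhibition of growth.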

How the values were obtained:
Assay in all cases: NCI anticancer screen, dose series, 48 h
UACC-257 melanoma = test system: UACC-257 melanoma
SF-295 CNS = test system: SF-295 CNS
SF-268 CNS = test system: SF-268 CNS
SF-539 CNS = test system: SF-539 CNS
HOP-92 NSCLC = test system: HOP-92 NSCLC
RPMI-8226 leukemia = test system: RPMI-8226 leukemia
HL-60(TB) leukemia = test system: HL-60(TB) leukemia
ACHN renal = test system: ACHN renal
OVCAR-5 ovarian = test system: OVCAR-5 ovarian
HCC-2998 colon = test system: HCC-2998 colon
LOX IMVI melanoma = test system: LOX IMVI melanoma
PC-3 prostate = test system: PC-3 prostate
SNB-75 CNS = test system: SNB-75 CNS
UACC-62 melanoma = test system: UACC-62 melanoma
SK-MEL-28 melanoma = test system: SK-MEL-28 melanoma
HT29 colon = test system: HT29 colon
HCT-15 colon = test system: HCT-15 colon
RXF 393 renal = test system: RXF 393 renal
KM12 colon = test system: KM12 colon
T-47D breast = test system: T-47D breast

| SMILES | TGI (UACC-257 melanoma) [µM] | TGI (SF-295 CNS) [µM] | TGI (SF-268 CNS) [µM] | TGI (SF-539 CNS) [µM] | TGI (HOP-92 NSCLC) [µM] | TGI (RPMI-8226 leukemia) [µM] | TGI (HL-60(TB) leukemia) [µM] | TGI (ACHN renal) [µM] | TGI (OVCAR-5 ovarian) [µM] | TGI (HCC-2998 colon) [µM] | TGI (LOX IMVI melanoma) [µM] | TGI (PC-3 prostate) [µM] | TGI (SNB-75 CNS) [µM] | TGI (UACC-62 melanoma) [µM] | TGI (SK-MEL-28 melanoma) [µM] | TGI (HT29 colon) [µM] | TGI (HCT-15 colon) [µM] | TGI (RXF 393 renal) [µM] | TGI (KM12 colon) [µM] | TGI (T-47D breast) [µM] |
| --- | --- | --- | --- | --- | --- | --- | --- | --- | --- | --- | --- | --- | --- | --- | --- | --- | --- | --- | --- | --- |
| CC(=O)N1CC(=O)N2C(=O)/C(=C/c3ccc(Cl)cc3)N=C12 | > 100 | > 100 | > 100 | > 100 | > 100 | > 100 | 56.4 | > 100 | > 100 | > 100 | > 100 | > 100 | > 100 | > 100 | > 100 | > 100 | > 100 | > 100 | > 100 | > 100 |
| O=c1c2cc([N+](=O)[O-])ccc2n2n1CCCC2 | > 100 | > 100 | > 100 | > 100 | > 100 | > 100 | > 100 | > 100 | > 100 | > 100 | > 100 | > 100 | > 100 | > 100 | > 100 | > 100 | > 100 | > 100 | > 100 | > 100 |
| CCCCCCCCCCCCCCCCOCC(CCl)OP(=O)(O)OP(=O)(O)OCC1OC(n2ccc(N)nc2=O)C(O)C1O (stereo not given) | > 100 | > 100 | > 100 | > 100 | > 100 | > 100 | > 100 | > 100 | > 100 | > 100 | > 100 | > 100 | 22 | > 100 | > 100 | > 100 | > 100 | > 100 | > 100 | > 100 |
| COC(=O)/C=C(\S/C(=N\n1cc(C(=O)OC)c(C(=O)OC)c1-c1ccc(C)cc1)c1ccc(C)cc1)C(=O)OC | 9.84 | > 100 | 40.4 | 33 | 8.31 | 20.1 | 14.7 | 5.78 | 14.5 | 34 | 17 | 10.3 | 31.4 | 25.9 | 12.5 | 9.67 | 7.34 | 13.9 | 41.9 | > 100 |
